Experimental findings from ChEMBL document CHEMBL2429763, “Nonbenzamidine acylsulfonamide tissue factor-factor VIIa inhibitors” (Bioorg Med Chem Lett, 2013) are described below.

The target of data set [1] is Trypsin (Homo sapiens, UniProt P07477+P07478+P35030). The data set is described as follows: Inhibition of trypsin (unknown origin). The data set is classed as protein assay.
Data set [2] has as its target Prothrombin (Homo sapiens, UniProt P00734). In words: Inhibition of thrombin (unknown origin).
Data set [3] deals with Coagulation factor X (Homo sapiens, UniProt P00742). The data set is described as follows: Inhibition of factor 10a (unknown origin).
Chain of Coagulation factor X (P00742 41-179 limits assumed): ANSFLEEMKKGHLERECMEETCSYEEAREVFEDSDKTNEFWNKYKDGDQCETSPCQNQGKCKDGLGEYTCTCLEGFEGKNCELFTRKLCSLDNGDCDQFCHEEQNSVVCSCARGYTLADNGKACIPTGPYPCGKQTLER
Chain of Coagulation factor X (P00742 235-488 limits assumed): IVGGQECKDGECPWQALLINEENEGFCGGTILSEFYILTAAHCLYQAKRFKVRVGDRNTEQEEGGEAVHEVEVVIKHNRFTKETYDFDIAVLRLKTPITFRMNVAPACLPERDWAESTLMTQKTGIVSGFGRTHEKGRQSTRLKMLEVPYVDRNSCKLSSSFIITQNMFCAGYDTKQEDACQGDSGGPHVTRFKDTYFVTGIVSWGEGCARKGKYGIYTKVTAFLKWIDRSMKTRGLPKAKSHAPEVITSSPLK
A short description of data set [4]: Anticoagulant activity in plasma (unknown origin) assessed as concentration required to double prothrombin time. The data set is classed as functional, unidentified.
For data set [5], the target named is Coagulation factor VII/tissue factor (Homo sapiens, UniProt P08709). The data set is described as follows: Inhibition of human recombinant soluble tissue factor-factor 7a using H-D-Ile-Pro-Arg-pNA as substrate. The data set is classed as protein-complex assay.
Chain of Coagulation factor VII/tissue factor (P08709 61-212 limits assumed): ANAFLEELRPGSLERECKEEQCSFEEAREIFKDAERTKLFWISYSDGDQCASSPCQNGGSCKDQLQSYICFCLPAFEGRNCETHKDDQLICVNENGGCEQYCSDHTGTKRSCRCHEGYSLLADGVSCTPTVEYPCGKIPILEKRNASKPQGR
Chain of Coagulation factor VII/tissue factor (P08709 213-466 limits assumed): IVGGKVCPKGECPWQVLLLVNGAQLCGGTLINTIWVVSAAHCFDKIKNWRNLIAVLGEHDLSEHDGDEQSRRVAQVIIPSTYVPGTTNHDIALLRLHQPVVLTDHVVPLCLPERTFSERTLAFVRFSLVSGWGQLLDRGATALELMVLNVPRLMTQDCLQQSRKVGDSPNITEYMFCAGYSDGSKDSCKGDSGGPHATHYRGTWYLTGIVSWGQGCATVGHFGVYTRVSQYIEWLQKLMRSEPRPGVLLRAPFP
Chain of Coagulation factor VII/tissue factor (P13726 33-295 partner limits assumed): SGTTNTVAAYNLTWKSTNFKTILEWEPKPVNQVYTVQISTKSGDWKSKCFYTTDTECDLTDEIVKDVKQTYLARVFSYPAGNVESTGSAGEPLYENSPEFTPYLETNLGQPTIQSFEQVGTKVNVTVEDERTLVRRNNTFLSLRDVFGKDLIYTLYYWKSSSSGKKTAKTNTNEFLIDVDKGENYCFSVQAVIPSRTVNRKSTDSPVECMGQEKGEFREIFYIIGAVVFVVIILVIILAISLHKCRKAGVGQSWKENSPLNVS
In data set [6] the target is T1, Coagulation factor VII/tissue factor (Homo sapiens) (UniProt P08709+P13726). In words: Noncompetitive inhibition of human recombinant soluble tissue factor-factor 7a using physiological substrate. The data set is classed as protein-complex assay.
Data set [7] deals with T1, Coagulation factor VII/tissue factor (Homo sapiens). The data set is described as follows: Competitive inhibition of human recombinant soluble tissue factor-factor 7a using tripeptide as substrate. Format: protein-complex assay.
Data set [8] can be described thus: Oral bioavailability in dog at 0.5 mg/kg. The following applies: in vivo. The data set is classed as ADME, organism-based, Canis lupus familiaris.
Data set [9] in a line: Volume of distribution at steady state in dog at 0.2 mg/kg, iv. Format: ADME, organism-based, Canis lupus familiaris. On the set-up: dose 0.2 mg/kg, route intravenous. The conditions noted are these: in vivo, read-out: Vdss.
Data set [10] is described as follows: Half life in dog at 0.2 mg/kg, iv. The data set is classed as ADME, organism-based, Canis lupus familiaris. Also on record: dose 0.2 mg/kg, route intravenous. The following applies: in vivo.
Data set [11] in a line: Clearance in dog at 0.2 mg/kg, iv. The following applies: in vivo. Also on record: dose 0.2 mg/kg, route intravenous. The data set is classed as ADME, organism-based, Canis lupus familiaris.
Data set [12] can be described thus: Dissociation constant, pKa of the compound. Format: physicochemical.

The structures appear in SMILES notation. Active and inactive are the calls of the source. No cut-off for these calls is given here.

On to `CCOc1cc(C(Nc2ccc3cnccc3c2)C(=O)NS(=O)(=O)c2ccccc2S(C)(=O)=O)ccc1OC(C)C` (centres undefined), for which the inhibition constant (Ki) in data set [1] was greater than 5 µM; in [2] it was 10.3 µM; in data set [3] it was greater than 8 µM; in data set [5], 0.012 µM. The 2PT in data set [4] amounted to 76 µM.

Take `CCOc1cc(C(Nc2ccc3cnccc3c2)C(=O)NS(=O)(=O)c2ccccc2S(N)(=O)=O)ccc1OC(C)C` (centres undefined): the Ki was greater than 5 µM in data set [1], greater than 13 µM in data set [2], greater than 8 µM in data set [3] and 0.073 µM in [5].

`CCOc1cc(C(Nc2ccc3cnccc3c2)C(=O)NS(=O)(=O)c2ccc(S(N)(=O)=O)cc2)ccc1OC(C)C` (centres undefined): the inhibition constant Ki was greater than 5 µM in [1], greater than 13 µM in [2], greater than 8 µM in data set [3] and 0.32 µM in data set [5].

Consider `CCOc1cc(C(Nc2ccc3c(N)nccc3c2)C(=O)NS(=O)(=O)c2ccc(C)cc2)ccc1OC(C)C` (centres undefined), for which the Ki in data set [1] turned out to be 3.04 µM; in [2] it was 2.9 µM; in data set [3], 3.05 µM; in data set [5], 0.197 µM.

In the case of `CCOc1cc(C(Nc2ccc(C(=N)N)cc2)C(=O)NS(=O)(=O)c2ccccc2)ccc1OC(C)C` (centres undefined), the 2PT in [4] stood at 4 µM. Further, the inhibition result in data set [6] and in data set [7] was “Active” each time. In data set [5], the Ki is 0.0013 µM.

Regarding `CCOc1cc(C(Nc2ccc3cnccc3c2)C(=O)NS(=O)(=O)c2ccc(S(C)(=O)=O)cc2)ccc1OC(C)C` (centres undefined), the Ki in data set [1] is greater than 5 µM; in [2], greater than 13 µM; in data set [3] it was greater than 8 µM; in data set [5], 8.1 µM.

For the compound `CCOc1cc(C(Nc2ccc3c(N)nccc3c2)C(=O)NS(=O)(=O)c2cccc(N)c2)ccc1OC(C)C` (centres undefined), the Ki in data set [1] is greater than 5 µM; in data set [2] it was greater than 13 µM; in data set [3] it was greater than 8 µM; in data set [5], 0.048 µM.

On to `CCOc1cc(C(Nc2ccc3cnccc3c2)C(=O)NS(=O)(=O)c2cccc(S(=O)(=O)N(C)C)c2)ccc1OC(C)C` (centres undefined), for which the inhibition constant (Ki) in [1] is greater than 5 µM; in data set [2] it was greater than 13 µM; in data set [3], 7.2 µM; in data set [5], 0.78 µM.

In the case of `CCOc1cc(C(Nc2ccc3cnccc3c2)C(=O)NS(=O)(=O)c2cccc(S(N)(=O)=O)c2)ccc1OC(C)C` (centres undefined), the Ki in data set [1] was greater than 5 µM; in data set [2], greater than 13 µM; in data set [3], greater than 8 µM; in data set [5], 0.032 µM.

With `CCOc1cc(C(Nc2ccc3c(N)ncnc3c2)C(=O)NS(=O)(=O)c2ccccc2)ccc1OC(C)C` (centres undefined), the Ki in [5] is 0.39 µM.

As for `CCOc1cc(C(Nc2ccc3c(N)nccc3c2)C(=O)NS(=O)(=O)c2cccc(C(N)=O)c2)ccc1OC(C)C` (centres undefined), the Ki in data set [1] is greater than 5 µM; in data set [2], greater than 13 µM; in data set [3], greater than 8 µM; in data set [5], 0.018 µM.

With `CCOc1cc(C(Nc2ccc3nc(N)[nH]c3c2)C(=O)NS(=O)(=O)c2ccccc2)ccc1OC(C)C` (centres undefined), the Ki in [5] came to 0.67 µM.

In the case of `CCOc1cc(C(Nc2ccc3cnccc3c2)C(=O)NS(=O)(=O)c2cccc(S(=O)(=O)NC)c2)ccc1OC(C)C` (centres undefined), the Ki is greater than 5 µM in [1], greater than 13 µM in data set [2], 7 µM in [3] and 0.25 µM in data set [5].

As to `CCOc1cc([C@@H](Nc2ccc3c(N)nccc3c2)C(=O)NS(=O)(=O)c2ccccc2)ccc1OC(C)C`, the bioavailability in data set [8] is 4%. In data set [9], the Vd is 1.5 L/kg. The compound further had a half-life in [10] of 1.5 h. The compound further showed a clearance in [11] of 24 mL/min/kg. Moreover, the Ki in [1] was greater than 5 µM; in [2] it was 6.9 µM; in data set [3], 7.3 µM. In addition, the 2PT in [4] is 36 µM.

`CCOc1cc(C(Nc2ccc3c(N)nccc3c2)C(=O)NS(=O)(=O)c2ccc(N)cc2)ccc1OC(C)C` (centres undefined): the Ki is greater than 5 µM in data set [1], 7.4 µM in data set [2], 5.8 µM in data set [3] and 0.009 µM in data set [5].

Regarding `CCOc1cc(C(Nc2ccc3c(N)nccc3c2)C(=O)NS(=O)(=O)c2cccc(S(N)(=O)=O)c2)ccc1OC(C)C` (centres undefined), the inhibition constant (Ki) in [1] is greater than 5 µM; in data set [2], greater than 13 µM; in data set [3] it was 5.9 µM; in data set [5], 0.01 µM.

Turning to `CCOc1cc([C@@H](Nc2ccc3cnccc3c2)C(=O)NS(=O)(=O)c2cccc(S(N)(=O)=O)c2)ccc1OC(C)C`, the Ki in data set [1] is greater than 5 µM; in data set [2], greater than 13 µM; in data set [3] it was greater than 8 µM; in data set [5], 0.017 µM.

As to `CCOc1cc([C@@H](Nc2ccc3c(N)nccc3c2)C(=O)NS(=O)(=O)c2cccc(S(N)(=O)=O)c2)ccc1OC(C)C`, the Ki in [1] was greater than 5 µM; in data set [2], 9.4 µM; in [3] it was 5.6 µM; in data set [5] it was 0.0028 µM. For the same compound, the 2PT in data set [4] turned out to be 14 µM.

In the case of `CCOc1cc(C(Nc2ccc3cnccc3c2)C(=O)NS(=O)(=O)c2cccc(S(C)(=O)=O)c2)ccc1OC(C)C` (centres undefined), the Ki in [1] was greater than 5 µM; in data set [2], greater than 13 µM; in data set [3] it was greater than 8 µM; in [5] it was 0.145 µM.

Take `CCOc1cc(C(Nc2ccc3cnccc3c2)C(=O)NS(=O)(=O)c2ccccc2)ccc1OC(C)C` (centres undefined): the Ki in data set [1] is greater than 5 µM; in data set [2] it was greater than 13 µM; in data set [3], 5.4 µM; in data set [5], 0.07 µM. In addition, the inhibition entry in data set [6] and in data set [7] was “Active” in each case. Moreover, the pKa in data set [12] was found to be 7.8.

With `CCOc1cc(C(Nc2ccc3c(N)nccc3c2)C(=O)NS(=O)(=O)c2ccc(O)cc2)ccc1OC(C)C` (centres undefined), the Ki is greater than 5 µM in data set [1], greater than 13 µM in data set [2], greater than 8 µM in [3] and 0.007 µM in data set [5].

In the case of `CCOc1cc(C(Nc2ccc3c(N)nccc3c2)C(=O)NS(=O)(=O)c2ccccc2)ccc1OC(C)C` (centres undefined), the Ki in data set [1] was found to be 4.7 µM; in [2] it was 4.3 µM; in data set [3] it was 3.5 µM. The inhibition result in data set [6] and in [7] was “Active” throughout. Also, the pKa in data set [12] was 8.9.

`CCOc1cc(C(Nc2ccc3c(N)noc3c2)C(=O)NS(=O)(=O)c2ccccc2)ccc1OC(C)C` (centres undefined): the Ki in [5] amounted to 1.94 µM.

Regarding `CCOc1cc([C@@H](Nc2ccc3cnccc3c2)C(=O)NS(=O)(=O)c2ccccc2)ccc1OC(C)C`, the bioavailability in data set [8] came to 36%. The Vd in data set [9] came out at 0.6 L/kg. In addition, the half-life in [10] was 0.9 h. The same compound yielded a clearance in data set [11] of 9.3 mL/min/kg. In addition, the Ki in [1] was greater than 5 µM; in data set [2] it was greater than 13 µM; in data set [3], greater than 8 µM; in data set [5], 0.044 µM. For the same compound, the 2PT in data set [4] was greater than 80 µM.

`CCOc1cc(C(Nc2ccc3c(N)n[nH]c3c2)C(=O)NS(=O)(=O)c2ccccc2)ccc1OC(C)C` (centres undefined): the Ki in data set [5] was 2.9 µM.

On to `CCOc1cc(C(Nc2ccc3c(N)nccc3c2)C(=O)NS(=O)(=O)c2cccc(CO)c2)ccc1OC(C)C` (centres undefined), for which the Ki in data set [1] is greater than 5 µM; in data set [2] it was 11 µM; in data set [3] it was greater than 8 µM; in data set [5], 0.028 µM.

Turning to `CCOc1cc(C(Nc2ccc3c(N)nccc3c2)C(=O)NS(=O)(=O)c2cccc(O)c2)ccc1OC(C)C` (centres undefined), the Ki in data set [1] was greater than 5 µM; in data set [2], 11 µM; in [3], 5.5 µM; in data set [5], 0.026 µM.

For `CCOc1cc(C(Nc2ccc3cnccc3c2)C(=O)NS(=O)(=O)c2ccccc2S(=O)(=O)CC)ccc1OC(C)C` (centres undefined), the Ki is greater than 5 µM in data set [1], 9.4 µM in data set [2], greater than 8 µM in [3] and 0.006 µM in data set [5].

In the case of `CCOc1cc([C@H](Nc2ccc3c(N)nccc3c2)C(=O)NS(=O)(=O)c2ccccc2)ccc1OC(C)C`, the Ki is greater than 5 µM in data set [1], greater than 13 µM in data set [2] and 8.2 µM in data set [3].
